This note sets out measurements from PubChem BioAssay (NCI).

SMILES strings stand for the structures. Values joined by “and” are separate entries in the source; they are usually repeats but may differ in a detail not shown here. Identical values can stand only once.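 Method: 48-hour compound exposure of cells in 96-well plates, five concentrations, linear interpolation of endpoints. Abbreviation: GI50, concentration required for 50% inhibition of growth. TGI: concentration producing complete growth inhibition.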 A value given as a limit tells only on which side of the number the result lay.

Among the test systems are MDA-MB-231 breast; CCRF-CEM leukemia; SNB-19 CNS; SNB-75 CNS; OVCAR-8 ovarian; K-562 leukemia; UO-31 renal; HS 578T breast; SW-620 colon; HL-60(TB) leukemia.
What all share (assay): growth of human tumour cells (NCI), 48 h

For `CC(=O)O[C@H]1C(=O)[C@]2(C)[C@@H](OC(=O)OCC(O)CO)C[C@H]3OC[C@@]3(OC(C)=O)[C@H]2[C@H](OC(=O)c2ccccc2)[C@]2(O)C[C@H](OC(=O)[C@H](O)[C@@H](NC(=O)c3ccccc3)c3ccccc3)C(C)=C1C2(C)C` (some centres undefined), the TGI was 17.2 µM with MDA-MB-231 breast; 31 µM in the assay on CCRF-CEM leukemia; over 100 µM in the assay with SNB-19 CNS; under 0.01 µM with SNB-75 CNS; over 78.1 µM in the assay with OVCAR-8 ovarian; over 100 µM in the assay with K-562 leukemia. The TGI was over 100 µM in the assay on UO-31 renal, under 0.01 µM in the assay on HS 578T breast and 22.1 µM in the assay on SW-620 colon.

With `O=C(CCN1CCCC1)Nc1ccc2c(NCCCCc3ccccc3)c3ccccc3nc2c1`, the GI50 in the assay with MDA-MB-231 breast is 1.15 µM; with SNB-75 CNS it was 1.33 µM; in the assay on UO-31 renal, 1.55 µM; with SW-620 colon it was 0.534 µM. For the same compound, the TGI in the assay on MDA-MB-231 breast amounted to 2.43 µM; with SNB-75 CNS it was 2.65 µM; in the assay with UO-31 renal, 2.92 µM; with SW-620 colon, 1.86 µM.

As to `N#Cc1ccc(Nc2nc3nc[nH]c3c(=O)[nH]2)cc1`, the TGI with MDA-MB-231 breast, in the assay on CCRF-CEM leukemia, in the assay on SNB-19 CNS, in the assay with SNB-75 CNS, in the assay with HL-60(TB) leukemia and in the assay on OVCAR-8 ovarian was over 100 µM in each case. Further, the TGI in the assay with UO-31 renal, in the assay with HS 578T breast and in the assay with SW-620 colon was over 100 µM in each case.

With `CC(=O)OC1CC2(O)C(CCC3(C)C(c4ccc(=O)oc4)CCC32O)C2(C)CCC(O)C=C12` (centres undefined), the GI50 in the assay on CCRF-CEM leukemia was 0.00387 µM and 0.0375 µM; with SNB-75 CNS, 0.0375 µM; in the assay on HL-60(TB) leukemia, 0.0375 µM; in the assay with OVCAR-8 ovarian it was 0.0375 µM; in the assay with K-562 leukemia, 0.0128 µM; with UO-31 renal, 0.0667 µM. Besides, in the assay on SW-620 colon, the GI50 was 0.01 µM. The TGI with CCRF-CEM leukemia is 0.0519 µM and 0.0405 µM; with SNB-19 CNS, 0.225 µM and 0.244 µM; in the assay on SNB-75 CNS it was 0.188 µM and 0.116 µM; with HL-60(TB) leukemia, 0.0144 µM and 0.071 µM; in the assay on OVCAR-8 ovarian, 0.0926 µM and 0.0472 µM; with K-562 leukemia, 0.256 µM and 0.178 µM. Further, the TGI with UO-31 renal is 0.131 µM and 0.095 µM; in the assay on SW-620 colon, 0.17 µM and 0.0561 µM.

`CC(C)(C)CC(C)(C)Cc1ccc(OCCOCC[N+](C)(C)Cc2ccccc2)cc1`: the GI50 was 1.51 µM with MDA-MB-231 breast; 1.31 µM in the assay with CCRF-CEM leukemia; 1.63 µM with SNB-75 CNS; 0.365 µM with HL-60(TB) leukemia; 0.966 µM in the assay on K-562 leukemia; 14.2 µM in the assay with UO-31 renal. Besides, the GI50 in the assay with HS 578T breast is 2.03 µM; with SW-620 colon it was 1.64 µM. The TGI in the assay on MDA-MB-231 breast came out at 3.08 µM; in the assay on CCRF-CEM leukemia, 3.72 µM; in the assay with SNB-75 CNS, 3.47 µM; in the assay with HL-60(TB) leukemia, 1.93 µM; in the assay with K-562 leukemia it was 3.57 µM; in the assay with UO-31 renal, 34.7 µM. Also, the TGI with HS 578T breast came to 4.75 µM; in the assay on SW-620 colon, 3.35 µM.

In the case of `COc1cc2c(cc1-c1c(C)noc1C)ncc1nc(C3CCCCC3)n(C3CCC(OC(F)F)CC3)c12` (centres undefined), the GI50 with MDA-MB-231 breast is 1.72 µM; in the assay on SNB-75 CNS it was 0.511 µM; in the assay on HL-60(TB) leukemia it was 1.26 µM; with OVCAR-8 ovarian it was 2.74 µM; in the assay with K-562 leukemia, 1.75 µM; with HS 578T breast, 3.74 µM. Moreover, the TGI in the assay on MDA-MB-231 breast is over 100 µM; with SNB-75 CNS it was over 100 µM; with HL-60(TB) leukemia it was 3.97 µM; in the assay with OVCAR-8 ovarian, over 100 µM; in the assay with K-562 leukemia it was over 100 µM; in the assay on HS 578T breast it was over 100 µM.

Turning to `COc1cc(-c2ccc(-c3ccc(C(=N)N)s3)s2)cc(OC)c1OC`, the GI50 is 3.42 µM in the assay with CCRF-CEM leukemia; 1.5 µM in the assay on SNB-75 CNS; 2.7 µM in the assay on HL-60(TB) leukemia; 2.62 µM in the assay with OVCAR-8 ovarian; 1.11 µM in the assay with K-562 leukemia; 1.74 µM with UO-31 renal. In addition, the TGI amounted to 10.4 µM in the assay with CCRF-CEM leukemia; 2.93 µM in the assay with SNB-75 CNS; 5.64 µM in the assay on HL-60(TB) leukemia; 5.31 µM in the assay on OVCAR-8 ovarian; 3.41 µM in the assay on K-562 leukemia; 3.54 µM in the assay on UO-31 renal.

Regarding `COc1cccc2c1C(=O)c1c(O)c3c(c(O)c1C2=O)C[C@@](O)(C(C)=O)C[C@@H]3OC1CC(N)C(O)C(C)O1` (some centres undefined), the GI50 was 0.0534 µM in the assay with MDA-MB-231 breast; under 0.0135 µM in the assay on SNB-19 CNS; 0.0161 µM in the assay on SNB-75 CNS; under 0.0201 µM with OVCAR-8 ovarian; under 0.01 µM in the assay with K-562 leukemia.

Regarding `Cc1c2cc[n+](C)cc2c(COC2OC(CO)C(O)C2O)c2c3ccccc3n(C)c12` (centres undefined), the TGI with CCRF-CEM leukemia is over 100 µM; in the assay with SNB-19 CNS, over 95.7 µM; in the assay on SNB-75 CNS, 92.4 µM; in the assay on HL-60(TB) leukemia, over 100 µM; with OVCAR-8 ovarian, over 100 µM; in the assay with K-562 leukemia, over 100 µM. In addition, the TGI in the assay with UO-31 renal and in the assay on SW-620 colon was over 100 µM each time.

Turning to `Cc1c2cc[n+](C)cc2c(C)c2c1[nH]c1ccc(O)cc12`, the TGI with MDA-MB-231 breast is over 100 µM; in the assay with CCRF-CEM leukemia, over 92.6 µM; in the assay on SNB-19 CNS it was 22.5 µM; in the assay on SNB-75 CNS, 25.7 µM; in the assay on HL-60(TB) leukemia, over 87.9 µM; with OVCAR-8 ovarian, over 98.3 µM. Also, the TGI was over 82.1 µM in the assay with K-562 leukemia, 86.8 µM in the assay on UO-31 renal, 5.7 µM in the assay with HS 578T breast and over 100 µM with SW-620 colon.

As for `CCP(=O)(CC)C(Cl)(Cl)C(=O)NC`, the TGI in the assay on MDA-MB-231 breast, with CCRF-CEM leukemia, in the assay with SNB-19 CNS, in the assay with SNB-75 CNS, in the assay with HL-60(TB) leukemia and in the assay on OVCAR-8 ovarian was over 100 µM throughout. Besides, the TGI in the assay with K-562 leukemia, in the assay on UO-31 renal, in the assay with HS 578T breast and in the assay with SW-620 colon was over 100 µM in each case.
